Assay [1] concerns human B cells. In words: Human naive B cell proliferation (thymidine incorporation) and CD27 expression. It counts as cell-based. The procedure: PBMCs were isolated from the medical waste following apheresis collection of platelets. Briefly, blood was diluted 1:3 using PBS. The diluted blood was then overlaid with Ficoll-Paque PLUS density gradient medium (GE Healthcare). The gradient was centrifuged at 400 g with no brake for 25 minutes at room temperature. The PBMC interphase layer was collected, washed with PBS with 0.1% BSA/2 mM of EDTA. Naive B cells (CD19^+CD27^−IgD^+) were enriched using Human naive B cell negative selection kit (Stemcell Technologies). Mouse B cells were isolated from pooled single cell suspensions of spleen and peripheral lymph nodes using CD19 Microbeads (Miltenyi) or Mouse B cell Isolation Kit (Stemcell Technologies). B cells were stimulated with LPS (10 μg/mL; Sigma-Aldrich) and recombinant IL-4 cytokine (10 ng/mL; Tonbo Bioscience) with or without SCD inhibitor SSI-4, and proliferation was measured by dilution of CellTrace Violet proliferation dye (Thermo Fisher Scientific). B cells were also stimulated with anti-IgM (10 μg/mL; Jackson ImmunoResearch), anti-CD40 (10 μg/mL; BioXcell) and IL-4 (10 ng/mL; Tonbo Bioscience), or TLR ligand CpG (2.5 μM; IDT), recombinant IL-4 and IL-5 (10 ng/mL; Tonbo Bioscience) cytokines. To test the function of monounsaturated and saturated fatty acids, B cells were activated in presence of exogenous fatty acid-BSA conjugate. Palmitoleic acid (NU-CHEK PREP, INC), palmitic acid (NU-CHEK PREP, INC), stearic acid (NU-CHEK PREP, INC) were conjugated with fatty acid free BSA (Sigma-Aldrich) as described elsewhere (Wang et al., Immunity 35:871-882 (2011)). Human B cells were activated with CpG OND2006 (2.5 μM; IDT), recombinant human cytokine IL-10 ([…]; Peprotech), IL-15 (10 ng/mL; Peprotech), IL-4 (10 ng/mL; Biolegend), IL-2 (10 unit/mL) and anti-human CD40 (1 μg/mL; BioXcell). Human B cell proliferation was measured by ^3[H]-thymidine incorporation (1 μCi/mL) (American Radiolabeled Chemicals).

Assay [2] has as its system MRL/MpJ-Faslpr mice. In words: MRL/MpJ-Faslpr lupus mouse model fed SSI-4 chow. The assay is classed as in vivo. The procedure:
MRL/MpJ-Fas^lpr mice and B6 (C)-H2-Ab1^bm12/KhEgJ (bm12) mice were purchased from the Jackson Laboratory. Six weeks old female MRL/MpJ-Fas^lpr mice were treated with control chow or SSI-4 chow (60 mg/kg, on a two-week SSI-4 chow/control-chow alternating schedule) ad libitum for 15 weeks. Proteinuria was measured using Albustix strips (Siemens). Kidney histology was done using routine H&E staining. Thirty million splenocytes from 8 weeks old B6 (C)-H2-Ab1^bm12/KhEgJ (bm12) mice were transferred into C57BL/6 mice intraperitoneally. Mice were fed with control chow or SSI-4 chow (30 mg/kg, on an one-week SSI-4 chow/control-chow alternating schedule) ad libitum for 8 weeks.
For analysis of surface markers, cells were stained in PBS containing 1% (w/v) bovine serum albumin on ice for 30 minutes, with anti-B220 (RA3-6B2, Biolegend), anti-CD4 (GK1.5, Biolegend), anti-CD138 (281-2, Biolegend), anti-PD-1 (J43, ThermoFisher). CXCR5 was stained with biotinylated anti-CXCR5 (2G8) followed by staining with streptavidin-conjugated PE (both from BD Biosciences). Cell viability was assessed using the Fixable Dye Ghost 510 (Tonbo Bioscience) following the manufacturer's protocol. Flow cytometry was performed on the LSR II, LSR Fortessa (BD Biosciences) or Attune NxT (ThermoFisher) cytometers, and analysis was performed using FlowJo software (Tree Star).

The test system of assay [3] is influenza A infected mice. Description: Influenza A/PR8 infection of mice fed SSI-4 chow. It counts as in vivo, mouse. The procedure: For influenza virus infection, influenza A/PR8 strain (200 pfu/mouse) were diluted in FBS-free DMEM media on ice and inoculated in anesthetized mice through intranasal route. Sera were collected before and two weeks after infection for fatty acid component measurement. The mice were fed with control chow or SSI-4 chow for 1 week following influenza infection before switching to regular diet. The mediastinal lymph nodes were analyzed for GC B cell formation and Tfh differentiation. Mice were bred and maintained under specific pathogen-free conditions in Department of Comparative Medicine of Mayo Clinic with IACUC approval.
For analysis of surface markers, cells were stained in PBS containing 1% (w/v) bovine serum albumin on ice for 30 minutes, with anti-IgG1 (RMG1-1, Biolegend), anti-CD19 (ID3, Biolegend) anti-B220 (RA3-6B2, Biolegend), anti-CD4 (GK1.5, Biolegend), anti-CD8 (53-6.7, Biolegend), anti-CD25 (PC16, Biolegend), anti-GL7 (GL-7, Biolegend), anti-CD95 (Jo2, BD Biosciences), anti-CD138 (281-2, Biolegend), anti-IgD (11-26c.2a, Biolegend), anti-PD-1 (J43, ThermoFisher), anti-IgM (II/41, ThermoFisher). Antigen specific GC response was detected with tetramer NP-phycoerythrin conjugated with PE (Biosearch Technologies). CXCR5 was stained with biotinylated anti-CXCR5 (2G8) followed by staining with streptavidin-conjugated PE (both from BD Biosciences). Cell viability was assessed using the Fixable Dye Ghost 510 (Tonbo Bioscience) or Annexin V cell apoptosis kit with 7-AAD (ThermoFisher) following the manufacturer's protocol. Phosflow staining for phospho-S6 (S235/236) was performed using Phosflow Fix/Perm kit (BD Biosciences). Mitochondrial potential was measured by staining with 20 nM TMRM (ThermoFisher) following manufacturer's instructions. Flow cytometry was performed on the LSR II, LSR Fortessa (BD Biosciences) or Attune NxT (ThermoFisher) cytometers, and analysis was performed using FlowJo software (Tree Star).
For NP specific antibodies detection in sera, 96-well plates (2596; Costar) were coated with 2 μg/mL NP23-BSA in PBS overnight. Plates were washed twice (0.05% Tween 20 in PBS), blocked with 5% blocking protein (Bio-Rad) for 1 hour, and washed twice, and serially diluted serum samples were added for 1.5 hours at 37° C. Plates were washed four times and horseradish peroxidase (HRP)-conjugated detection Abs for IgG (Bethyl Laboratories) and IgG1 (Bethyl Laboratories) were added for 1 hour at RT, washed four times, and tetramethylbenzidine (TMB) substrate was added. Reaction was stopped using 2N H2SO4 and read at 450 nm. Similarly, antibodies IgG, IgG1 and IgG2c specific to influenza A/PR8 strain in sera were measured with influenza virus coated plate.

Consider 2 compounds from patent US11833144B2, “Treating autoimmune disease” (Mayo Foundation for Medical Education and Research, priority 2020, dated 2023).

On to `CCCCCCCC/C=C\CCCCCCCC(=O)O` [OA, oleic acid], for which the “restoration of human B cell proliferation and CD27 expression upon SSI-4 treatment” value in assay [1] (SSI-4 (10 nM) plus exogenous OA) is “restored B cell proliferation and CD27 expression”. The “human B cell activation measured by CD27 expression, exogenous OA alone” value in assay [1] (flow cytometry MFI) is on record as “promoted”. Besides, the “human B cell proliferation, exogenous OA alone” value in assay [1] (thymidine incorporation) is “promoted human B cell proliferation”.

For the compound `CNC(=O)c1ccnc(NC(=O)N2CCC(Oc3ccccc3Cl)CC2)c1` [SSI-4, 2-{[4-(2-Chlorophenoxy)piperidine-1-carbonyl]amino}-N-methylpyridine-4-carboxamide], the “kidney histology (H&E)” value in assay [2] (SSI-4 chow 60 mg/kg, alternating schedule) is “reduced immune cell infiltration and inflammation”. Also, the proteinuria result in assay [2] (SSI-4 chow 60 mg/kg, two-week alternating schedule, from 6 weeks old, measured from 8 weeks old) is given as “no increase of proteinuria”. Moreover, in assay [2] (flow cytometry), the “B cell proliferation measured by Ki-67 expression” value is “significantly reduced”. Besides, the “B cell metabolic activity measured by expression of CD98” value in assay [2] (flow cytometry MFI) is recorded as “significantly reduced”. Besides, the “production of anti-influenza total IgG, IgG1 and IgG2c in sera” value in assay [3] (ELISA) is “significantly dampened”. The “body weight loss in influenza A infected mice” value in assay [3] (SSI-4 chow for 1 week following infection vs control chow) is “substantially more severe weight loss”. In addition, the “frequency of GC B cells in mediastinal lymph nodes” value in assay [3] (day 11 following infection) was “significantly reduced”. In addition, the “CD138+ plasmablast formation” value in assay [3] (influenza infection) was “did not affect”. The “expression of Bcl6 in B cells” value in assay [3] (mediastinal lymph nodes) is on record as “significantly reduced”.
